Consider 7 compounds from US11369662B2 (The Medical College of Wisconsin, Inc., priority 2014, dated 2022).

Values joined by “and” are separate entries in the source; they are usually repeats but may differ in a detail not shown here. Identical values can stand only once. Non-standard residues stand in square brackets, D forms with d. Residues, ends and D or L forms follow the SMILES beside them. sY = N[C@@H](Cc1ccc(OS(=O)(=O)O)cc1)C(=O)O

One assay has as its system MiaPaCa2 cells. Kind of assay: MiaPaCa2 chemotaxis (Transwell). Format: cell-based. The settings on record: 6 h stimulation; relative to CXCL12WT. Here is the method:
MiaPaCa2 chemotaxis. Chemotactic migration of pancreatic cancer MiaPaCa2 cells was performed as previously described using Transwell plates coated with 15 ug/ml collagen. Briefly, MiaPaCa2 cells were serum starved for 2 hours, lifted using enzyme-free dissociation buffer, washed and then counted using a hemocytometer. 100,000 cells in 10 uL of serum free media were plated into the top chamber of each Transwell. The bottom chamber of each Transwell contained each stimulant in 500 uL serum free media. MiaPaCa2 cells were allowed to migrate for 6 hours, after which the cells remaining on the top of the chamber were swabbed out. Plates were then fixed in 4% paraformaldehyde and stained with DAPI. Migrated cells were visualized and counted by fluorescence microscopy, with 5 representative high-powered fields taken per well.

Another assay has as its system KG1a cells. Kind of assay: Apoptosis assays in KG1a cells expressing CXCR4-YFP. Format: cell-based, human. The settings on record: 100 ng/ml. As to the method: Apoptosis assays. KG1a (human acute myelogenous leukemia) cells were assayed for CXCL12-dependent apoptosis as previously described. Briefly, CXCR4 expression on KG1a cells was achieved via transient transfection with a plasmid encoding a CXCR4-YFP fluorescent fusion protein. […] Apoptosis was assayed by staining cells with APC-conjugated annexin V to detect cell-surface phosphatidyl serine (BD Biosciences) or Alexaflour-647-conjugated antibody to detect cleaved PARP (BD Biosciences), and the percentage of YFP+ cells undergoing apoptosis was determined by flow cytometry.

A further assay concerns THP-1 cells. Description: THP-1 chemotaxis (Transwell). Type of assay: cell-based. The settings on record: 3 h stimulation. As to the method: THP-1 chemotaxis. Chemotaxis experiments were performed using Tranwell ([…]; Costar) in 24-well format. […] THP-1 cells were washed twice and […] cells were added to the upper chamber. Plates were incubated for 3 h at 37° C., 5% CO2. Following incubation, Transwell membranes were removed and cells that migrated into the lower chamber were counted using a TC-10 Automated Cell Counter (BioRad) and hemocytometer. The chemotactic index was calculated as the difference in migrated cell number between those exposed to chemokine and the vehicle control.

For the next assay, the system named is U-937 cells. Description: Agarose microdroplet assay of U-937 migration. Type of assay: cell-based. Here is the method: Agarose microdroplet assay. The agarose microdroplet assay was performed to determine U-937 cellular migration, as previously described. 0.5×10^6 cells/ml U-937 target cells were harvested and washed in HBSS. Cells were spun at 2,000 rpm and were transferred to a graduated 15 ml glass conical tube. The cell concentration was adjusted in agarose medium, prepared from 2% low melting temperature Seaplaque agarose and medium containing 15% FBS, using a 1:4 volume-to-volume dilution. A 1 μl agarose droplet containing 1-10^5 target cells was placed in the center of each well of a 96-well flat-bottom tissue culture plate, in triplicate, using a gastight 0.05 ml Hamilton syringe (Hamilton Company, Reno, Nev.). Droplets were allowed to harden at 4° C. for 20 min. 200 μl chilled test media was applied to each well. […] The plate was incubated for 18-24 h at 37° C. and 5% CO2. Following incubation, the radius of each droplet was determined and target cell migration was measured at four directional points 900 from one another, using an inverted light microscope equipped with a gridded eyepiece, at 40× total magnification. Percent inhibition of each sample was quantified. The plate was incubated for an additional 24 h to measure recovery, and viability was determined by trypan blue exclusion.
Agarose microdroplet assay. The agarose microdroplet assay was performed to determine U-937 cellular migration, as previously described {AdeCXCL121an, 1980 #1609}. 0.5×10^6 cells/ml U-937 target cells were harvested and washed in HBSS. Cells were spun at 2,000 rpm and were transferred to a graduated 15 ml glass conical tube. […] Following incubation, the radius of each droplet was determined and target cell migration was measured at four directional points 900 from one another, using an inverted light microscope equipped with a gridded eyepiece, at 40× total magnification. Percent inhibition of each sample was quantified. The plate was incubated for an additional 24 h to measure recovery, and viability was determined by trypan blue exclusion.

The subject of a further assay is NALM6 cells. Description: NALM6 chemotaxis (Boyden chamber). Type of assay: cell-based. Conditions: 90 min stimulation; relative to CXCL12WT. Here is the method: NALM6 chemotaxis. NALM6 cells were grown in RPMI-1640 supplemented with 10% FBS, 100 U/mL penicillin-streptomycin, 2 mM glutamine, 50 μM […], non-essential amino acids, 1 mM Na-pyruvate and 25 mM HEPES buffer (pH 7.3). Chemotaxis assays were performed in triplicate in 48-well Boyden chambers (NeuroProbe), using 5 μm pore-sized polyvinylpyrrolidone-free polycarbonate membranes. […] Cells ([…] per well) resuspended in chemotaxis medium were added to the upper well and incubated for 90 min at 37° C. in 5% CO2 atmosphere. Cells were removed from the upper part of the membrane with a rubber policeman. Cells attached to the lower side of the membrane were fixed and stained as described. Migrated cells were counted in five randomly selected fields of 1000-fold magnification.
NALM6 chemotaxis. NALM6 cells were grown in RPMI-1640 supplemented with 10% FBS, 100 U/mL penicillin-streptomycin, 2 mM glutamine, 50 μM 2-mercaptoethanol, non-essential amino acids, 1 mM Na-pyruvate and 25 mM HEPES buffer (pH 7.3). Chemotaxis assays were performed in triplicate in 48-well Boyden chambers (NeuroProbe), using 5 μm pore-sized polyvinylpyrrolidone-free polycarbonate membranes. […] Migrated cells were counted in five randomly selected fields of 1000-fold magnification.

Another assay concerns the target T1, CXCL121 (Homo sapiens, UniProt P48061, I79C/L76C).
T1 construct: made in house
Description: 2D NMR (1H-15N HSQC) titration of CXCR4 peptides into CXCL121. Format: binding. The settings on record: for ΔG: ΔG = −RT ln Kd @ 298 K. As to the method: (§1) NMR spectroscopy. All NMR spectra were acquired on a Bruker DRX 600 MHz spectrometer equipped with a ^1H, ^15N, ^13C TXI cryoprobe at 298 K. Experiments were performed with either 50 μM [U-^15N]-CXCL12WT, -CXCL121, or -CXCL122 proteins in a solution containing 25 mM deuterated MES (pH 6.8), 10% (v/v) D2O, and 0.02% (w/v) NaN3. Full-length CXCR41-38 peptide titrations required 20 μM [U-^15N]-CXCL121 and -CXCL122 protein samples. Sulfated CXCR4 peptides were reconstituted at 100 mM in 25 mM deuterated MES, 10% (v/v) D2O, and 0.02% (w/v) NaN3 buffer. Unsulfated CXCR4 peptides were similarly reconstituted to 15 mM. Two separate 4ISIYTSD10 (SEQ ID NO:8) peptide samples were reconstituted at 10 mM and 15 mM peptide in 25 mM deuterated MES, 10% (v/v) D20, 0.02% (w/v) NaN3 buffer, from lyophilized powder.
(§2) Total peptide additions differed for individual peptide titrations but ranged from 0-160 equivalencies. Spectra were processed using in-house scripts and chemical shift tracking was performed using CARA software. Combined ^1H/^15N chemical shift perturbations were calculated as ((5 ΔδH)^2+(ΔδNH)^2)^0.5, where δH and δNH are the amide proton and nitrogen chemical shifts, respectively. Equilibrium dissociation constants (Kd) were determined by non-linear fitting of the combined ^1H/^15NH chemical shift perturbations as a function of peptide concentration to a single-site quadratic equation. For a given interaction, residues with the largest chemical shift perturbations were fitted individually. The resulting Kd values and their respective fitting errors were then averaged to produce the reported affinity and standard deviation for that interaction.

A further assay has as its target T2, CXCL12WT (Homo sapiens, UniProt P48061).
T2 construct: made in house
Description: 2D NMR (1H-15N HSQC) titration of CXCR4 peptides into CXCL12WT. Type of assay: binding. The settings on record: for ΔG: ΔG = −RT ln Kd @ 298 K. Here is the method:
as §1, §2

In the next assay the target is T3, CXCL122 (Homo sapiens, UniProt P48061, A86C/L57C).
T3 construct: made in house
Kind of assay: 2D NMR (1H-15N HSQC) titration of CXCR4 peptides into CXCL122. Format: binding. The settings on record: for ΔG: ΔG = −RT ln Kd @ 298 K. As to the method:
as §1, §2

The target of a further assay is T4, CXCL12WT dimerization (Homo sapiens, UniProt P48061).
T4 construct: made in house
Kind of assay: Intrinsic tryptophan fluorescence polarization assay of CXCL12WT dimerization. Format: binding. Conditions: for coupling energy linking CXCL12 dimerization to sTyr21 pocket binding: thermodynamic cycle. Here is the method:
Fluorescence polarization assay. Fluorescence polarization (FP) assays were performed on a PTI spectrofluorometer equipped with automated polarizers, using a time base polarization method provided by the program Felix32. […] Experiments were performed in duplicate and the reported dimerization Kd values reflect the average of both experiments.
A general note: In fluorescence polarisation assays a small probe gives low polarisation when free and higher when bound to something large.

[1] abbreviates: unsulfated vs sulfated Tyr7 peptide.

With “CXCL121: constitutively monomeric CXCL12 variant with L55C and I58C substitutions (SEQ ID NO:2)”, the “extension of the effective chemotactic dose” value with MiaPaCa2 cells, with THP-1 cells and in the assay on NALM6 cells was “at least 10 fold” in each case. Besides, the “cleavage of PARP” value in the assay on KG1a cells is “significantly greater than CXCL122”. Besides, in the assay with U-937 cells (all tested concentrations, 18-24 h, serum-containing media), the “effect on U-937 cell migration” value is “significantly enhanced migration”. In addition, the “concentration of peak migration enhancement” value with U-937 cells (bell-shaped dose response) is recorded as 25 nM.

As to Ac-SDNYTEE-NH2 [9SDNYTEE15], the “ΔG” value on CXCL121 was -3.50 kcal/mol; at CXCL12WT, -3.65 kcal/mol; on CXCL122, -4.74 kcal/mol.

On to Ac-SGDYDSM-NH2 [18SGDYDSM24], for which the “ΔG” value is -3.85 kcal/mol on CXCL121; -3.50 kcal/mol on CXCL12WT; -4.2 kcal/mol and -4.20 kcal/mol on CXCL122.

Consider Ac-ISIYTSD-NH2 [4ISIYTSD10], for which the “binding to CXCL121 relative to the sTyr7 sulfopeptide” value on CXCL121 (setting [1]) is “roughly five-fold stronger”. Besides, the “ΔG” value on CXCL121 is -4.03 kcal/mol; on CXCL12WT it was -3.71 kcal/mol; on CXCL122, -4.60 kcal/mol. The “affinity for CXCL12WT relative to the sTyr7 sulfopeptide” value at CXCL12WT (setting [1]) was “two-fold higher affinity”.

As for `CC(=O)N[C@@H](CO)C(=O)N[C@@H](CC(=O)O)C(=O)N[C@@H](CC(N)=O)C(=O)N[C@@H](Cc1ccc(OS(=O)(=O)O)cc1)C(=O)N[C@H](C(=O)N[C@@H](CCC(=O)O)C(=O)N[C@@H](CCC(=O)O)C(N)=O)[C@@H](C)O` [9SDNsYTEE15] (Ac-SDN[sY]TEE-NH2), the “ΔG” value at CXCL121 was -3.74 kcal/mol; at CXCL12WT it was -4.09 kcal/mol; on CXCL122, -4.87 kcal/mol.

As to `CC[C@H](C)[C@H](NC(C)=O)C(=O)N[C@@H](CO)C(=O)N[C@H](C(=O)N[C@@H](Cc1ccc(OS(=O)(=O)O)cc1)C(=O)N[C@H](C(=O)N[C@@H](CO)C(=O)N[C@@H](CC(=O)O)C(N)=O)[C@@H](C)O)[C@@H](C)CC` [4ISIsYTSD10] (Ac-ISI[sY]TSD-NH2), the “ΔG” value on CXCL121 is -3.02 kcal/mol; at CXCL12WT, -3.22 kcal/mol; at CXCL122 it was -4.65 kcal/mol.

In the case of `CSCC[C@H](NC(=O)[C@H](CO)NC(=O)[C@H](CC(=O)O)NC(=O)[C@H](Cc1ccc(OS(=O)(=O)O)cc1)NC(=O)[C@H](CC(=O)O)NC(=O)CNC(=O)[C@H](CO)NC(C)=O)C(N)=O` [18SGDsYDSM24] (Ac-SGD[sY]DSM-NH2), the ΔGbind at CXCL121 (pathway 1: binding to CXCL12 before dimerization, 298 K) is listed as −3.8 kcal mol^−; at CXCL122 (pathway 2: binding to dimerized CXCL12, 298 K) it was −5.0 kcal mol^−. Besides, the entries for the “ΔG” value on CXCL121, on CXCL12WT and at CXCL122 were -3.81 kcal/mol, -3.74 kcal/mol and -5.01 kcal/mol, respectively. In addition, the “increase of CXCL12 dimerization affinity” value at CXCL12WT dimerization (by sTyr21 sulfopeptide) was “eight-fold”. Besides, the “coupling energy linking CXCL12 dimerization to sTyr21 pocket binding” value on CXCL12WT dimerization (first value) was −1.2 kcal mol^−; on CXCL12WT dimerization (second value), −1.0 kcal mol^−. Further, the “binding to CXCL122 relative to CXCL12WT or CXCL121” value on CXCL122 (fold stronger) is listed as 20 fold. Further, the “binding to CXCL122 relative to the unsulfated variant” value on CXCL122 (sulfated vs unsulfated Tyr21 peptide) was “four-fold stronger”.
